Reference: paper PMC5874699, “Antimicrobial and Antibiofilm Activity of UP-5, an Ultrashort Antimicrobial Peptide Designed Using Only Arginine and Biphenylalanine” (Pharmaceuticals, 2018)
Read-outs that look alike come from different tables or passages of the source. Square brackets hold non-standard residues; d marks the D form. Peptide text beside a SMILES is read from it. Bip = N[C@@H](Cc1ccc(-c2ccccc2)cc1)C(=O)O

Tests used:
[1] = tested on: Staphylococcus aureus (ATCC 29213); format: cell-based; conditions: ATCC 29213, 24 h
Source text: (§1) All bacterial susceptibility, biofilm, and synergistic assays of peptides, antibiotics, and peptides-antibiotics combinations used bacterial strains obtained from the American Type Tissue Culture Collection (ATCC, Manassas, VA, USA) that states the mechanism of resistance for each strain according to ATCC number. Gram-positive bacteria were represented by five strains, the wild type strain Staphylococcus aureus (ATCC 29213) and methicillin-resistant S. aureus (MRSA) (ATCC 33591) in addition to clinically isolated strains S. aureus (ATCC BAA-41& 43300) and Enterococcus faecalis (ATCC BAA-2316). The Gram-negative bacteria strains were represented by wild type strains of Escherichia coli (ATCC 25922 & 35218) and Pseudomonas aeruginosa (ATCC 27853) as well as the clinically isolated multidrug-resistant strain P. aeruginosa (ATCC BAA-2114). The bacteria were cultured onto Muller Hinton Agar (Scharlab, S.L, Barcelona, Spain). Mueller Hinton Broth (Oxoid Ltd., Basingstoke, UK) was used to prepare all bacterial suspensions and to dissolve the peptides and the antibiotics. The assay was performed in sterile 96-well polypropylene microtiter plates.
(§2) All bacterial susceptibility assays were conducted according to the microbroth dilution method outlined by the Clinical and Laboratory Standards Institute (CLSI) guidelines.
(§3) Briefly, pre-sterilized MHB was used as a growth medium for organisms obtained from stock media with glycerol. Bacterial cells were grown overnight in MHB and diluted to 10^6 CFU/mL in the same medium prior to use. For peptide, serial concentrations in the range of 0.5–100 μM were prepared. Then, 50 μL of each peptide concentration and 50 µL of diluted bacterial suspension were added to each well of a 96-well microtiter plate. Peptide solutions were prepared by dissolving the peptide in sterile MHB. Then, the plates were incubated overnight in a humidified atmosphere, and at 37 °C. Bacterial growth was determined by measuring the optical density (OD) at λ = 600 nm using an ELISA plate reader (Epoch, BioTek, Winooski, VT, USA) and the minimum inhibitory concentration (MIC) was determined.
(§4) As described in the previous section, the MIC and MBC values of antibiotics employed in this study were determined against subjected bacterial strains via preparing different concentrations of each antibiotic.

S. aureus (ATCC 43300) = format: cell-based, Staphylococcus aureus; conditions: ATCC 43300, 24 h
Source text: as §1, §2, §3, §4

S. aureus (ATCC BAA-41) = format: cell-based, Staphylococcus aureus; conditions: ATCC BAA-41, 24 h
Source text: as §1, §2, §3, §4

[2] = tested on: P. aeruginosa (ATCC BAA-2114); format: cell-based, Pseudomonas aeruginosa; conditions: ATCC BAA-2114, 24 h
Source text: as §1, §2, §3, §4

human erythrocytes = format: cell-based
Procedure: Two milliliters of human blood were placed into a 50 mL centrifuge tube and centrifuged (3000× g). The supernatant was discarded, the cell pellet re-suspended in 48 mL of PBS, and centrifuged as above; this step was repeated twice. Finally, 2 mL of cell pellet were re-suspended in a sterile tube containing 48 mL PBS to reach a final concentration of 4% RBC. […] Positive controls were prepared by adding 5 µL of 0.1% (Triton 100X) to 2 mL of 4% RBC suspension and negative controls were prepared by adding 2 mL of 4% RBC suspension only. All preparations were incubated for 60 min at 37 °C. Next, the tubes were gently vortexed and 1 mL of each sample were removed and placed into sterilized eppendorf tubes and then centrifuged (3000× g). Then, 200 µL of each supernatant was placed into a 96 well-plate. Absorbance was measured at λ = 450 nm with the aid of an ELISA reader. The percentage hemolysis was calculated according to the following equation:(2) % Hemolysis=A−AO/AX−AO×100 where A is the optical density at 450 nm (OD450) of the peptide solution, AO is the OD450 of the negative control (0.9% NaCl) and AX is the OD450 of the positive control (0.1% Triton 10X).

Vero cells = format: cell-based; conditions: 24 h
Procedure: Vero cells were seeded at 5 × 10^3 cells per well in flat-bottomed 96-well plates, and the plate was incubated for 18–24 h at 37 °C under 5% CO2 to allow cell attachment on the bottom of the plates. Next day, different concentrations of the peptide were prepared as a gradient using growth medium as the diluent (150, 200, 250, 300, 400, 500, and 600 µM). The plates were incubated for 24 h at 37 °C under 5% CO2. Next, 30 μL (2.5 g/L) MTT solutions were added to all wells and the plates were incubated for 4–6 h. After incubation, the MTT-Peptide solution was removed and a 100 μL of DMSO was added to each well and mixed thoroughly by pipetting to dissolve the Formazan crystals at the bottom of the wells until a clear purple color was achieved. The plates were then placed on an ELx808™ Absorbance Microplate Reader (BioTek, Winooski, VT, USA) and the absorbance was measured at λ = 540 nm.

in vitro = in vitro ADME; conditions: mouse
Procedure: The stability assay of UP-5 relied on a previously reported stability test procedure employing mouse plasma or mouse serum (PAA Laboratories, Pasching, Austria). Briefly, a stock solution of the peptide was prepared in 5% aqueous DMSO. The highest DMSO concentration was less than 0.5% after dilution in order to have a final concentration of peptide equal to 1 g/L. Each peptide was dissolved in plasma or serum at a final concentration corresponding to 75 µg/mL and incubated at 37 °C (750 rpm, Eppendorf, Hamburg, Germany). After different time periods, aliquots (47.5 µL) were taken and proteins were precipitated by addition of 150 µL of a mixture composed acetonitrile, water, and formic acid (89:10:1 by volume). The samples were incubated on ice for 45 min and centrifuged for 10 min at 13,000× g (Eppendorf, Hamburg, Germany). […] The second supernatant (155 µL) was collected and dried under vacuum. The samples were dissolved in 3% aqueous acetonitrile containing, 0.1% formic acid, and were analyzed using an Agilent 1100 HPLC system (Agilent Technologies, Santa Clara, CA, USA), coupled online to an Esquire HCT mass spectrometer (Bruker Daltonik GmbH, Bremen, Germany) equipped with an analytical Jupiter C18-reversed phase column (2 mm inner diameter, 150 mm length, 5 µm particle size, […]). Eluent A contained 0.1% formic acid in water and Eluent B was 60% aqueous acetonitrile containing 0.1% formic acid.

N=C(N)NCCC[C@H](NC(=O)[C@H](Cc1ccc(-c2ccccc2)cc1)NC(=O)[C@H](CCCNC(=N)N)NC(=O)[C@H](Cc1ccc(-c2ccccc2)cc1)NC(=O)[C@@H](N)CCCNC(=N)N)C(=O)O [UP-5] (H-R[Bip]R[Bip]R-OH)
MBC Value [1]: 10 µM
MIC Value [1]: 10 µM
MBC Value (S. aureus (ATCC 43300)): 15 µM
MIC Value (S. aureus (ATCC 43300)): 15 µM
MBC Value (S. aureus (ATCC BAA-41)): 15 µM
MIC Value (S. aureus (ATCC BAA-41)): 15 µM
MBC Value [2]: 55 µM
MIC Value [2]: 55 µM
Hemolysis (%) (human erythrocytes; 40 µM): 0.09%
Hemolysis (%) (human erythrocytes; 60 µM): 1.01%
Hemolysis (%) (human erythrocytes; 80 µM): 1.04%
Hemolysis (%) (human erythrocytes; 150 µM): 3.0%
Hemolysis (%) (human erythrocytes; 175 µM): 3.04%
IC50 (Vero cells): > 250 µM
half-life at 75 µg/mL (in vitro; plasma): 2.88 h
metabolised at 1 h, 75 µg/mL (in vitro; plasma): 27%
metabolised at 4 h, 75 µg/mL (in vitro; plasma): 66%
remaining at 1 h, 75 µg/mL (in vitro; plasma): 73%
remaining at 4 h, 75 µg/mL (in vitro; plasma): 34%
half-life at 75 µg/mL (in vitro; serum): < 0.25 h
metabolised at 0.25 h, 75 µg/mL (in vitro; serum): > 80%
